Source: ChEMBL document CHEMBL1135488, “Prediction of volume of distribution values in humans for neutral and basic drugs using physicochemical measurements and plasma protein binding data” (J Med Chem, 2002)

Legend:
clinical = details: human, in vivo, iv
in vitro [1] = details: human, plasma
in vitro [2] = assay: in vitro
[3] = pH 7.4
[4] = Ionisation constant (pKa); format: physicochemical

CN(C)CCCN1c2ccccc2Sc2ccc(Cl)cc21 [CHLORPROMAZINE]
Vd (clinical): 21 L/kg
fraction unbound (in vitro [1]): 0.03
fraction unbound (in vitro [2]): 0.001
Fraction ionised [3]: 0.986

COCCc1ccc(OCC(O)CNC(C)C)cc1 (stereo unspecified) [METOPROLOL]
Vd (clinical): 4.2 L/kg
fraction unbound (in vitro [2]): 0.084
Fraction ionised [3]: 0.995

CCN(CC)CCNC(=O)c1ccc(N)cc1 [PROCAINAMIDE]
Fraction ionised [3]: 0.986

CN1C(=O)CN=C(c2ccccc2)c2cc(Cl)ccc21 [DIAZEPAM]
Fraction ionised [3]: 0

CC(=O)CCCCn1c(=O)c2c(ncn2C)n(C)c1=O [PENTOXIFYLLINE]
Vd (clinical): 4.2 L/kg
fraction unbound (in vitro [1]): 1
fraction unbound (in vitro [2]; tissues): 0.095
Fraction ionised [3]: 0

COC(=O)[C@H]1[C@@H](OC(=O)c2ccccc2)C[C@@H]2CC[C@H]1N2C [COCAINE]
Vd (clinical): 2 L/kg
fraction unbound (in vitro [1]): 0.09
fraction unbound (in vitro [2]; tissues): 0.018
Fraction ionised [3]: 0.952

COc1cc(Cc2cnc(N)nc2N)cc(OC)c1OC [TRIMETHOPRIM]
Vd (clinical): 1.6 L/kg
fraction unbound (in vitro [1]): 0.63
fraction unbound (in vitro [2]): 0.166
Fraction ionised [3]: 0.319

CC(C)(C)NCC(O)c1cc(O)cc(O)c1 (stereo unspecified) [TERBUTALINE]
Vd (clinical): 1.8 L/kg
fraction unbound (in vitro [2]; tissues): 0.187
Fraction ionised [3]: 0.952

CCCC(=O)Nc1ccc(OCC(O)CNC(C)C)c(C(C)=O)c1 (stereo unspecified) [ACEBUTOLOL]
Vd (clinical): 1.2 L/kg
fraction unbound (in vitro [2]; tissues): 0.273
Fraction ionised [3]: 0.995

CN1CCN(C2=Nc3cc(Cl)ccc3Nc3ccccc32)CC1 [CLOZAPINE]
Vd (clinical): 5.4 L/kg
fraction unbound (in vitro [2]): 0.004
Fraction ionised [3]: 0.629

Cc1cc(=O)n(-c2ccccc2)n1C [ANTIPYRINE]
Vd (clinical): 0.6 L/kg
pKa [4]: Not Active
fraction unbound (in vitro [2]; tissues): 0.825
Fraction ionised [3]: 0

COc1cc2c(c(OC)c1OC)-c1ccc(OC)c(=O)cc1[C@@H](NC(C)=O)CC2 [COLCHICINE]
Vd (clinical): 4.2 L/kg
chromatographic logD (physchem): 0.9
Fraction ionised [3]: 0

O=C1Nc2ccc(Cl)cc2C(c2ccccc2Cl)=NC1O (racemic) [LORAZEPAM]
Vd (clinical): 1.3 L/kg
fraction unbound (in vitro [2]; tissues): 0.029
Fraction ionised [3]: 0

O=C(N[C@H](CO)[C@H](O)c1ccc([N+](=O)[O-])cc1)C(Cl)Cl [CHLORAMPHENICOL]
Vd (clinical): 0.94 L/kg
fraction unbound (in vitro [1]): 0.47
fraction unbound (in vitro [2]; tissues): 0.225
Fraction ionised [3]: 0

O=C(CCCN1CCC(O)(c2ccc(Cl)cc2)CC1)c1ccc(F)cc1 [HALOPERIDOL]
Vd (clinical): 18 L/kg
fraction unbound (in vitro [2]): 0.002
Fraction ionised [3]: 0.947

CN(C)CCCN1c2ccccc2CCc2ccccc21 [IMIPRAMINE]
Vd (clinical): 18 L/kg
fraction unbound (in vitro [2]; tissues): 0.002
Fraction ionised [3]: 0.992

O=c1n(CCCN2CCN(c3cccc(Cl)c3)CC2)nc2ccccn12 [TRAZODONE]
Vd (clinical): 1 L/kg
pKa [4]: 6.79
fraction unbound (in vitro [1]): 0.07
fraction unbound (in vitro [2]; tissues): 0.03
Fraction ionised [3]: 0.197

CN/C(=N/CCSCc1nc[nH]c1C)NC#N [CIMETIDINE]
Vd (clinical): 1 L/kg
pKa [4]: 6.97
fraction unbound (in vitro [1]): 0.81
fraction unbound (in vitro [2]): 0.374
Fraction ionised [3]: 0.271

C#CCCCC(=O)c1cc(C(C)(C)C)c(O)c(C(C)(C)C)c1 [TEBUFELONE]
Vd (clinical): 31 L/kg
fraction unbound (in vitro [1]): 0.00067
chromatographic logD (physchem): 5.56
fraction unbound (in vitro [2]; tissues): 8e-06
Fraction ionised [3]: 0

CNC(=C[N+](=O)[O-])NCCSCc1ccc(CN(C)C)o1 [RANITIDINE]
Vd (clinical): 1.3 L/kg
pKa [4]: 8.47
fraction unbound (in vitro [2]; tissues): 0.289
Fraction ionised [3]: 0.922

Cc1nc2n(c(=O)c1CCN1CCC(c3noc4cc(F)ccc34)CC1)CCCC2 [RISPERIDONE]
fraction unbound (in vitro [2]): 0.042
Fraction ionised [3]: 0.764

CNS(=O)(=O)Cc1ccc2[nH]cc(CCN(C)C)c2c1
Vd (clinical): 0.65 L/kg
pKa [4]: 9.5
fraction unbound (in vitro [2]; tissues): 0.661
Fraction ionised [3]: 0.992

O=C(NCC1CCCCN1)c1cc(OCC(F)(F)F)ccc1OCC(F)(F)F (stereo unspecified) [FLECAINIDE]
Vd (clinical): 4.9 L/kg
fraction unbound (in vitro [1]): 0.39
fraction unbound (in vitro [2]; tissues): 0.031
Fraction ionised [3]: 0.988

CN1[C@@H]2CC[C@H]1C[C@@H](OC(=O)C(CO)c1ccccc1)C2 (stereo partly specified) [ATROPINE]
Fraction ionised [3]: 0.996

COc1ccc([C@@H]2Sc3ccccc3N(CCN(C)C)C(=O)[C@@H]2OC(C)=O)cc1 [DILTIAZEM]
Vd (clinical): 3.1 L/kg
fraction unbound (in vitro [2]; tissues): 0.028
Fraction ionised [3]: 0.82

CN(C)CCOC(c1ccccc1)c1ccccc1 [DIPHENHYDRAMINE]
Fraction ionised [3]: 0.98

CN1C[C@H](C(=O)N[C@]2(C)O[C@@]3(O)[C@@H]4CCCN4C(=O)[C@H](Cc4ccccc4)N3C2=O)C=C2c3cccc4[nH]cc(c34)C[C@H]21 [ERGOTAMINE]
Vd (clinical): 2.7 L/kg
fraction unbound (in vitro [1]): 0.02
chromatographic logD (physchem): 4.3
fraction unbound (in vitro [2]; tissues): 0.003
Fraction ionised [3]: 0.074

CC(=O)O[C@H]1C(=O)[C@@]2(C)[C@H]([C@H](OC(=O)c3ccccc3)[C@]3(O)C[C@H](OC(=O)[C@H](O)[C@@H](NC(=O)c4ccccc4)c4ccccc4)C(C)=C1C3(C)C)[C@]1(OC(C)=O)CO[C@@H]1C[C@@H]2O [PACLITAXEL]
Vd (clinical): 2.4 L/kg
fraction unbound (in vitro [1]): 0.03
chromatographic logD (physchem): 4.45
fraction unbound (in vitro [2]): 0.005
Fraction ionised [3]: 0

C[C@]12CC[C@@H]3c4ccc(O)cc4CC[C@H]3[C@@H]1CC[C@@H]2O [ESTRADIOL]
Vd (clinical): 1.2 L/kg
fraction unbound (in vitro [1]): 0.015
fraction unbound (in vitro [2]; tissues): 0.005
Fraction ionised [3]: 0

C[C@@H]1C[C@H]2[C@@H]3CCC4=CC(=O)C=C[C@]4(C)[C@@]3(F)[C@@H](O)C[C@]2(C)[C@@]1(O)C(=O)CO [DEXAMETHASONE]
fraction unbound (in vitro [2]): 0.182
Fraction ionised [3]: 0

O=C1CN=C(c2ccccn2)c2cc(Br)ccc2N1 [BROMAZEPAM]
Vd (clinical): 0.91 L/kg
pKa [4]: Not Active
fraction unbound (in vitro [1]): 0.3
fraction unbound (in vitro [2]; tissues): 0.146
Fraction ionised [3]: 0

Clc1cccc(Cl)c1N=C1NCCN1 [CLONIDINE]
Vd (clinical): 2.1 L/kg
fraction unbound (in vitro [1]): 0.8
fraction unbound (in vitro [2]): 0.158
Fraction ionised [3]: 0.817

Oc1ncnc2[nH]ncc12 [ALLOPURINOL]
Vd (clinical): 0.6 L/kg
pKa [4]: Not Active
fraction unbound (in vitro [1]): 0.95
fraction unbound (in vitro [2]; tissues): 0.881
Fraction ionised [3]: 0

Cn1c(=O)c2c(ncn2C)n(C)c1=O [CAFFEINE]
Vd (clinical): 0.61 L/kg
fraction unbound (in vitro [2]; tissues): 0.543
Fraction ionised [3]: 0

CCCNCC(O)COc1ccccc1C(=O)CCc1ccccc1 (stereo unspecified) [PROPAFENONE]
Fraction ionised [3]: 0.987

Cc1ncc([N+](=O)[O-])n1CCO [METRONIDAZOLE]
Vd (clinical): 0.74 L/kg
pKa [4]: Not Active
fraction unbound (in vitro [1]): 0.89
fraction unbound (in vitro [2]; tissues): 0.609
Fraction ionised [3]: 0

CCOC(=O)C1=C(C)NC(C)=C(C(=O)OC)C1c1cccc(Cl)c1Cl (stereo unspecified) [FELODIPINE]
chromatographic logD (physchem): 4.52
Fraction ionised [3]: 0

C[C@]12C=CC(=O)C=C1CC[C@@H]1[C@@H]2C(=O)C[C@@]2(C)[C@H]1CC[C@]2(O)C(=O)CO [PREDNISONE]
Vd (clinical): 0.97 L/kg
fraction unbound (in vitro [1]): 0.25
fraction unbound (in vitro [2]; tissues): 0.113
Fraction ionised [3]: 0

CNCCCN1c2ccccc2CCc2ccccc21 [DESIPRAMINE]
Vd (clinical): 20 L/kg
fraction unbound (in vitro [2]): 0.003
Fraction ionised [3]: 0.999

C[C@]12C=CC(=O)C=C1CC[C@@H]1[C@@H]2[C@@H](O)C[C@@]2(C)[C@H]1CC[C@]2(O)C(=O)CO [PREDNISOLONE]
Vd (clinical): 1.5 L/kg
fraction unbound (in vitro [1]): 0.075
fraction unbound (in vitro [2]): 0.021
Fraction ionised [3]: 0

CN/C(=C\[N+](=O)[O-])NCCSCc1csc(CN(C)C)n1 [NIZATIDINE]
Vd (clinical): 1.2 L/kg
pKa [4]: 6.59
fraction unbound (in vitro [1]): 0.78
fraction unbound (in vitro [2]; tissues): 0.0289
Fraction ionised [3]: 0.134

CCN(CC)CC(=O)Nc1c(C)cccc1C [LIDOCAINE]
Fraction ionised [3]: 0.776

CC(C)NCC(O)COc1cccc2ccccc12 (stereo unspecified) [PROPRANOLOL]
Vd (clinical): 4.3 L/kg
fraction unbound (in vitro [2]): 0.012
Fraction ionised [3]: 0.991

C=C[C@H]1C[N@@]2CC[C@H]1C[C@@H]2[C@@H](O)c1ccnc2ccc(OC)cc12 [QUINIDINE]
fraction unbound (in vitro [2]; tissues): 0.019
Fraction ionised [3]: 0.817

CCCCc1oc2ccccc2c1C(=O)c1cc(I)c(OCCN(CC)CC)c(I)c1 [AMIODARONE]
Fraction ionised [3]: 0.955

OC(Cn1cncn1)(Cn1cncn1)c1ccc(F)cc1F [FLUCONAZOLE]
Vd (clinical): 0.6 L/kg
pKa [4]: Not Active
fraction unbound (in vitro [2]; tissues): 0.814
Fraction ionised [3]: 0

CCN(CC)CCNC(=O)c1cc(Cl)c(N)cc1OC [METOCLOPRAMIDE]
Vd (clinical): 3.4 L/kg
fraction unbound (in vitro [2]): 0.07
Fraction ionised [3]: 0.988

Cc1cccc(C)c1OCC(C)N (stereo unspecified) [MEXILETINE]
Vd (clinical): 4.9 L/kg
fraction unbound (in vitro [1]): 0.37
fraction unbound (in vitro [2]): 0.03
Fraction ionised [3]: 0.981

Cc1nnc2n1-c1ccc(Cl)cc1C(c1ccccc1)=NC2 [ALPRAZOLAM]
Vd (clinical): 0.72 L/kg
fraction unbound (in vitro [2]; tissues): 0.881
Fraction ionised [3]: 0

COC(=O)C1=C(C)NC(C)=C(C(=O)OC)C1c1ccccc1[N+](=O)[O-] [NIFEDIPINE]
Vd (clinical): 0.78 L/kg
fraction unbound (in vitro [2]): 0.023

CN1C(=O)C(O)N=C(c2ccccc2Cl)c2cc(Cl)ccc21 (stereo unspecified) [LORMETAZEPAM]
Vd (clinical): 6.8 L/kg
fraction unbound (in vitro [2]; tissues): 0.007
Fraction ionised [3]: 0

COc1ccc2[nH]c([S+]([O-])Cc3ncc(C)c(OC)c3C)nc2c1 (racemic) [OMEPRAZOLE]
Vd (clinical): 0.34 L/kg
pKa [4]: Not Active
fraction unbound (in vitro [2]; tissues): 0.082
Fraction ionised [3]: 0

CN1CC[C@]23c4c5ccc(O)c4O[C@H]2[C@@H](O)C=C[C@H]3[C@H]1C5 [MORPHINE]
Fraction ionised [3]: 0.858

CN1CCC[C@H]1c1cccnc1 [NICOTINE]
Vd (clinical): 2.6 L/kg
chromatographic logD (physchem): 0.23
fraction unbound (in vitro [2]): 0.15
Fraction ionised [3]: 0.834

CN(C)CCC(c1ccc(Cl)cc1)c1ccccn1 (stereo unspecified) [CHLORPHENIRAMINE]
Vd (clinical): 3.2 L/kg
fraction unbound (in vitro [1]): 0.3
fraction unbound (in vitro [2]): 0.037
Fraction ionised [3]: 0.986

C=CCc1ccccc1OCC(O)CNC(C)C (stereo unspecified) [ALPRENOLOL]
Vd (clinical): 3.4 L/kg
fraction unbound (in vitro [1]): 0.24
fraction unbound (in vitro [2]; tissues): 0.028
Fraction ionised [3]: 0.992
